This test concerns HBV. Put plainly: Inhibition of HBV infection of human liver buds by drugs (intracellular HBV 3.5k RNA and HBV DNA in culture supernatant). To be noted: HBV 5,000 copies per cell, cultured for 10 days, FIG. 8, vs Con. The class given is cell-based. The method, then:
The endodermal cells obtained, vascular endothelial cells (human umbilical vein-derived endothelial cells) (Lonza, Basel, Switzerland) and undifferentiated mesenchymal cells (human bone marrow-derived mesenchymal stem cells) (Lonza, Basel, Switzerland) were mixed at 10:7:1 (400 cells: 280 cells: 40 cells per organ bud) to prepare human liver buds (120-150 μm in size).
The human liver buds prepared in (2) above were cultured in DMSO-containing medium for 7 days and further cultured in HGF-, OSM- and DEX-containing medium for 7 days, followed by infection with HBV. HBV was recovered from culture supernatant of HepG2.2.15 cells which had been prepared by transferring the intact HBV genome (genotype D) into human hepatoma cell line HepG2 by lipofection. The liver buds were infected with approx. 500 copies of HBV per endodermal cell in 4% PEG8000-containing medium and cultured for about 30 days.
(5) Culture supernatants of human liver buds and human iPS-cell derived hepatocytes were recovered at days 10, 20 and 30 post HBV infection, followed by measurement of HBV DNA. (6) Human liver buds and human iPS-cell derived hepatocytes were recovered at days 10, 20 and 30 post HBV infection, followed by measurement of HBV 3.5k RNA. (7) The inside of human liver buds was immunostained with HBc antibody at days 10, 20 and 30 post HBV infection. (8) Human primary hepatocytes (PXB cells; Phoenix Bio) were infected with the culture supernatant of human liver buds at day 20 post HBV infection. (9) Human liver buds and human iPS-cell derived hepatocytes were recovered at day 20 post HBV infection, followed by measurement of covalently closed circular DNA (cccDNA). (10) Human liver buds at day 10 post HBV infection and non-HBV-infected human liver buds in the corresponding period were fixed with paraformaldehyde and glutaraldehyde, and electron micrographs were taken. (11) Human liver buds were infected with HBV (5,000 copies per cell). […] Intracellular HBV 3.5k RNA and HBV DNA in culture supernatant were measured.

As for `C=C1[C@H](CO)[C@@H](O)C[C@@H]1n1cnc2c(=O)[nH]c(N)nc21` [ETV, entecavir, reference compound], the “infection of human liver bud with HBV” value (entecavir) is listed as “inhibited”.

As for interferon α [IFN-α], for the setting “interferon α 1000 U/ml”, the “infection of human liver bud with HBV” value was “inhibited”.

For interferon γ [IFN-γ], the “infection of human liver bud with HBV” value (interferon γ 1000 U/ml) is reported as “inhibited”.

The values are drawn from US20190285619A1, “VIRUS INFECTION MODEL, PREPARATION METHOD THEREFOR, AND UTILIZATION THEREOF” (priority 2015, published 2019).
